Publication PMC7143421 (Marine Drugs, 2020)
Square brackets hold non-standard residues; d marks the D form. Peptide text beside a SMILES is read from it. Hyp = O=C(O)[C@@H]1C[C@@H](O)CN1

Experiments:
[1] = target: T1, human NR2B (Homo sapiens, UniProt Q13224)
[2] = target: T1, human NR2B; assay: cell-based
[3] = target: NR2A (Homo sapiens, UniProt Q12879); format: cell-based
Sequence of NR2A (Q12879 whole entry, looked up): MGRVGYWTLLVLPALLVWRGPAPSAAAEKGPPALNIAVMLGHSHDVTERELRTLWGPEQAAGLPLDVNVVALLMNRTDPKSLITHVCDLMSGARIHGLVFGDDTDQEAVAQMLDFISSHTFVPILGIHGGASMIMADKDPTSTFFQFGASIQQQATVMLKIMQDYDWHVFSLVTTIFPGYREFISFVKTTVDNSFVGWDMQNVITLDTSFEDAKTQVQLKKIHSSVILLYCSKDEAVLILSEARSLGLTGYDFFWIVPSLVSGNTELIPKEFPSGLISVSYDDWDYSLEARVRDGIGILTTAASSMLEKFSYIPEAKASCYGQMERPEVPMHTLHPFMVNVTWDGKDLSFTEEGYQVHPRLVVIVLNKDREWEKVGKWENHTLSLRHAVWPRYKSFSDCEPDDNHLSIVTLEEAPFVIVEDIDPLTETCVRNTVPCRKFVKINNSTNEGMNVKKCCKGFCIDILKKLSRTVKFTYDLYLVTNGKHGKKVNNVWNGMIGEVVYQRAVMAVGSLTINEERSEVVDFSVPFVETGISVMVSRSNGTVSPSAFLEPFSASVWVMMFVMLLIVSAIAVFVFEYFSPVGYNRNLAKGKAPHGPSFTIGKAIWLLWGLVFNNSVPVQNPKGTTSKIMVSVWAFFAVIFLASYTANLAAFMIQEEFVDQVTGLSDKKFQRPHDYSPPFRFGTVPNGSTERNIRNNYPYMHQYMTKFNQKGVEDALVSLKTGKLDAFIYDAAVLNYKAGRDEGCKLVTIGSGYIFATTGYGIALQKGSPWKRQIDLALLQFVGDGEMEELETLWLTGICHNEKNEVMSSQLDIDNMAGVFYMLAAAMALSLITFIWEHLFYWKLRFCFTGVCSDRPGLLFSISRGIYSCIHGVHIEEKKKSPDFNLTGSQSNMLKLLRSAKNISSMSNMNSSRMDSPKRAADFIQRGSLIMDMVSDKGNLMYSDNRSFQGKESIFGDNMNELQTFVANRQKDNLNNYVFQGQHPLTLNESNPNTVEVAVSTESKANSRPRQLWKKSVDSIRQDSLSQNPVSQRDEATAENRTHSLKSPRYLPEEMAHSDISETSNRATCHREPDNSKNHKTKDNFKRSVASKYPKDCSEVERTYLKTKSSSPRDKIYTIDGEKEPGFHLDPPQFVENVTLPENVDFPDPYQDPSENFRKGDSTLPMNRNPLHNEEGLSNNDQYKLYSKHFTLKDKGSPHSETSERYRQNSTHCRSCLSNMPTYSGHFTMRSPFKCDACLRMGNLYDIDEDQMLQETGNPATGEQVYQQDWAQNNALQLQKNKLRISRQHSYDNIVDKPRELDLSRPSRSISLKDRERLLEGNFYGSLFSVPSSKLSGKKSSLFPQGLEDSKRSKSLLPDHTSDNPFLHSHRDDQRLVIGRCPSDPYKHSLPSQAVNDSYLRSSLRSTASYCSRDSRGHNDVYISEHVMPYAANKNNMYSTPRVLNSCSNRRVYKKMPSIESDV

T1 sequence (Q13224 whole entry, looked up): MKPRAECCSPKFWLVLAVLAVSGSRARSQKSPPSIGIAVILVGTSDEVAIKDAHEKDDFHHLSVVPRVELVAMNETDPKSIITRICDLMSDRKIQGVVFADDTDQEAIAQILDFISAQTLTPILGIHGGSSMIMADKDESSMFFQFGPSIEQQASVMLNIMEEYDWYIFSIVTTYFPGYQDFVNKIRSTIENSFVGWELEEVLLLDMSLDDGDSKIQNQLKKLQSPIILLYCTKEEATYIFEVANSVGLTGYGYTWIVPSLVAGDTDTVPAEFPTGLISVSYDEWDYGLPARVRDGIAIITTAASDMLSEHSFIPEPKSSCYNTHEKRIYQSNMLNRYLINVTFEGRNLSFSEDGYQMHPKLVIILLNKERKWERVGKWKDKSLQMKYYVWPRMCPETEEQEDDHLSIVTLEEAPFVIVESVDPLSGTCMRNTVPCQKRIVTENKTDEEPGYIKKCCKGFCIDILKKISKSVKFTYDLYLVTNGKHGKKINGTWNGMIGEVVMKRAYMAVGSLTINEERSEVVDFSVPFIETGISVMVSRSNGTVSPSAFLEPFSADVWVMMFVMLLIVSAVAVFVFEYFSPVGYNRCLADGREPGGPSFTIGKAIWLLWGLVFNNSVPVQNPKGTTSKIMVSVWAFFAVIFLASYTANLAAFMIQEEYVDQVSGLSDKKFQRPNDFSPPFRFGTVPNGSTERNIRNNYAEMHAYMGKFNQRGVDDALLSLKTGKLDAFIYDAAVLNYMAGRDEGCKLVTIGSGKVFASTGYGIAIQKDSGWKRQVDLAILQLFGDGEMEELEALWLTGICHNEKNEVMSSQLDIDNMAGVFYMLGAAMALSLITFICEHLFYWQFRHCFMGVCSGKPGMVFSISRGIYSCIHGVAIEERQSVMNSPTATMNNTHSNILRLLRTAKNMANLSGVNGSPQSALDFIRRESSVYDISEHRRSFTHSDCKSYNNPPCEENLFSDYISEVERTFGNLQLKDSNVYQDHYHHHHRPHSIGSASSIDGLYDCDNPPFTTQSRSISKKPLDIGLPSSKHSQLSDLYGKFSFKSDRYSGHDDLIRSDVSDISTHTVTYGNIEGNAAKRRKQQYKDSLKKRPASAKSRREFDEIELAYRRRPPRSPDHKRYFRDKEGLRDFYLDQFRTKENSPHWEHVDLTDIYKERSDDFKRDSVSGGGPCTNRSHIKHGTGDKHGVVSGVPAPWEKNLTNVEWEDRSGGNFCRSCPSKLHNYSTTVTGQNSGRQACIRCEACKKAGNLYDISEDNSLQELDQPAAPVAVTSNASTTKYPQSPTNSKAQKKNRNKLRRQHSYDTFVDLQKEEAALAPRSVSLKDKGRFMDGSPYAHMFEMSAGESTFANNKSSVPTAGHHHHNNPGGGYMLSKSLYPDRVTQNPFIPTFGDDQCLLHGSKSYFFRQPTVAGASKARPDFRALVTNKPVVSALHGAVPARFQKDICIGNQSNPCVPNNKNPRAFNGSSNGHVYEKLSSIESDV

CC(C)C[C@H](NC(=O)[C@H](Cc1ccc(O)cc1)NC(=O)[C@H](Cc1ccc(O)cc1)NC(=O)[C@@H](N)CC(N)=O)C(=O)N[C@@H](Cc1ccc(O)cc1)C(=O)N1C[C@H](O)C[C@H]1C(=O)N[C@@H](C)C(=O)N[C@@H](CCCNC(=N)N)C(=O)N1C[C@H](O)C[C@H]1C(=O)N[C@@H](CCC(=O)O)C(=O)N[C@@H](CC(N)=O)C(=O)N[C@@H](CO)C(=O)N[C@H](Cc1c[nH]c2ccccc12)C(=O)N[C@@H](Cc1c[nH]c2ccccc12)C(=O)N[C@H](C(=O)O)[C@@H](C)O [conotoxin-Ac1] (H-NYYLY[Hyp]AR[Hyp]ENS[dW]WT-OH)
The Inhibition of Currents (%) NR2B [1]: 51.69% | IC50 [2]: 8.22 ± 0.022 µM | The Inhibition of Currents (%) NR2A [3]: 7.22%
